The source of these data is patent US20260250322A1, “NEW PEPTIDES AS SELECTIVE IL-23 RECEPTOR INHIBITORS” (SANOFI, priority 2023, published 2026).

One data set addresses T1, human IL-23R (Homo sapiens, UniProt Q5VWK5).
T1 sequence (Q5VWK5 24-355 limits assumed): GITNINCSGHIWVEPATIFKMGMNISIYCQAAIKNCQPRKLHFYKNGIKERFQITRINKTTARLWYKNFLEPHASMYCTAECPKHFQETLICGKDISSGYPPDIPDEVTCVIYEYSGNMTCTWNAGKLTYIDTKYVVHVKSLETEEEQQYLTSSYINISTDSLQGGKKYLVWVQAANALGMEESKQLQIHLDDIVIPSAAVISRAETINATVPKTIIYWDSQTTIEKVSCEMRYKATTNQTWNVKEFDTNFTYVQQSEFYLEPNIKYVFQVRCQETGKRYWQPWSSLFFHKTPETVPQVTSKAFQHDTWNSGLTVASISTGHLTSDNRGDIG
The experiment in a line: Human ELISA IL-23/IL-23R binding inhibition. Conditions: human IL-23 coated, recombinant human IL-23R-Fc chimera. As for the experimental part: Antagonism of peptide compounds for human interleukin-23 receptor inhibitors, was determined by an ELISA assay.
A 384-well plate was coated with 50 μl/well of human IL-23 at a final concentration of 1 μg/ml and incubated overnight at 4° C. The wells were washed 3 times with 80 μl wash buffer and blocked with 80 μl blocking buffer for 60 minutes at room temperature and washed again. 20 μl of serially diluted test peptides was added to each well and subsequently 20 μl of recombinant human IL-23R-Fc chimera at final concentration of 0.1 μg/ml. The plate was incubated for 60 minutes at room temperature. After the wells were washed, bound IL-23R-Fc was detected with goat anti-hu-lgG1-HRP antibody. Signals were visualized with QuantaBlu Fluorogenic Peroxidase Substrate.

For data set [1], the system named is IL-23 induced STAT3 signaling. As to the kind of experiment: Inhibition of IL-23 induced STAT3 signaling in HEK-Blue IL-23 cells (SEAP reporter). It is filed as cell-based. Particulars: human IL-23 0.25 ng/ml, read-out: Inhibition of IL-23 induced pSTAT3 (IC50 nM). An excerpt:
HEK-Blue™ IL-23 cells (Invivogen) are designed for the detection of bioactive human (hIL-23) and murine IL-23 (mIL-23) by monitoring the activation of the STAT3 pathway. Binding of IL-23 to its receptor on the surface of HEK-Blue™ IL-23 cells triggers a signaling cascade leading to the activation of STAT3 and the subsequent production of secreted embryonic alkaline phosphatase (SEAP). This can be readily assessed using QUANTI-Blue™ Solution, a SEAP detection reagent.
HEK-Blue™ IL-23 cells were cultured as described by Invivogen.
On the first day of assay 10 μL of the HEK-Blue IL-23 cell suspension (final concentration: 10,000 cells/well) and 10 μl of serially diluted compound solutions were dispensed into a 384-well assay plate. After pre-incubation of the reaction mixtures at 37° C./5% CO2/95% humidity for 60 minutes, 10 μl of the humanIL-23 cytokine (final concentration: 0.25 ng/ml) was added to each well for the STAT3 signaling activation. The plate was incubated overnight at 37° C./5% CO2/95% humidity.
On the second day 20 μl per well of Quanti-Blue detection solution (prepared according to the manufacture instruction) was dispensed into a new 384-well plate and followed by the transfer of 5 μl supernatant of the overnight incubated cell/sample mixtures. After incubation of 45 min at room temperature signals were measured with PHERAstar (BMG) at OD 620-655 nm.
Dose response data were fitted with XLfit.

Data set [2] in a line: Chemical stability (relative purity loss) of peptide compounds in buffer formulations. The format is physicochemical. As for the experimental part:
Purity of a compound batch was determined through UHPLC/MS prior to chemical stability measurement using Method A.
For stability assessment, the target concentration was 300 μM pure compound. Therefore, solutions from solid samples were prepared in the following buffer systems with a concentration of ~300 µM compound based on the previously determined % purity. The solid samples were obtained by drying down aliquots of a freshly prepared acetonitrile stock solution using a THERMO SPEEDVAC vacuum centrifuge. The dry down time was 3 hours.
The following buffer systems were applied: • Solubility buffer system A) 100 mM phosphate buffer pH 7.4. • Solubility buffer system B) 100 mM phosphate buffer pH 6.5. • Solubility buffer system C) 100 mM HCl pH 1.2.
Prepared solutions were filtered through […] pore size and filled into sterilized glass containers under laminar flow conditions.
[…] After this time course, the samples were centrifuged for 15 min at 2500 RCF. Then 1.5 μl of the undiluted supernatant were analysed with UHPLC-UV.
The chemical stability was rated through the relative loss of purity calculated by the equation:
[(purity after 0 hours at 37° C.)(purity after 24 hours at 37° C.)]/(purity after 0 hours at 37° C.)]*100%.
The purity is calculated as [(peak area peptide)/(total peak area)]*100%.
Buffer composition: 100 mM HCl pH 1.2, 100 mM phosphate buffer pH 6.5, 100 mM phosphate buffer pH 7.4

Where [3] appears, read: pH 6.5 (100 mM phosphate buffer).
Where [4] appears, read: pH 7.4 (100 mM phosphate buffer).

Structures are written as SMILES. pIC50: −log10 of the molar value. Bridge positions count the residues as written; N and C are the ends. Square brackets hold non-standard residues; d marks the D form. Peptide text beside a SMILES is read from it. Trp(1-Me) = Cn1cc(C[C@H](N)C(=O)O)c2ccccc21; 1Nal = N[C@@H](Cc1cccc2ccccc12)C(=O)O; 2Nal = N[C@@H](Cc1ccc2ccccc2c1)C(=O)O; Aib = CC(C)(N)C(=O)O

As usually defined, the pIC50 is the IC50 on a negative log10 scale, so that one unit is a factor of ten. What is called IC50 is the midpoint of a concentration-inhibition curve. Turning to `COc1ccc(C[C@@H]2NC(=O)[C@H](CC(C)C)NC(=O)[C@H](CCC(N)=O)NC(=O)[C@H](Cc3c[nH]c4ccccc34)NC(=O)[C@H]([C@@H](C)O)NC(=O)[C@H](CC(N)=O)NC(=O)[C@H](NC(C)=O)CCCCNC(=O)C[C@@H](C(=O)N[C@@H](CC(N)=O)C(=O)N[C@@H](CC(N)=O)C(N)=O)NC(=O)C(C)(C)NC(=O)[C@H](Cc3ccc4ccccc4c3)NC2=O)cc1` [compound 1] (Ac-[dK]NTWQLY(Me)[2Nal][Aib]DNN-NH2; lactam 1-10), at human IL-23R, the pIC50 is 9.20. Also, in data set [1], the concentration for half-maximal inhibition (IC50) worked out at 334 nM.

Regarding `COc1ccc(C[C@@H]2NC(=O)[C@H](C)NC(=O)[C@H](CCC(N)=O)NC(=O)[C@H](Cc3c[nH]c4ccccc34)NC(=O)[C@H]([C@@H](C)O)NC(=O)[C@H](CC(N)=O)NC(=O)[C@H](NC(C)=O)CCCCNC(=O)C[C@@H](C(=O)N[C@@H](CC(N)=O)C(=O)N[C@@H](CC(N)=O)C(N)=O)NC(=O)C(C)(C)NC(=O)[C@H](Cc3ccc4ccccc4c3)NC2=O)cc1` [compound 2] (Ac-[dK]NTWQAY(Me)[2Nal][Aib]DNN-NH2; lactam 1-10), the negative logarithm of the IC50 (pIC50) on human IL-23R was 9.16. Moreover, in data set [1], the concentration for half-maximal inhibition (IC50) was found to be 234 nM.

Consider `CC(=O)N[C@@H]1CCCCNC(=O)C[C@@H](C(=O)N[C@@H](CC(N)=O)C(=O)N[C@@H](CC(N)=O)C(N)=O)NC(=O)C(C)(C)NC(=O)[C@H](Cc2ccc3ccccc3c2)NC(=O)[C@H](Cc2ccc(O)cc2)NC(=O)[C@H](CCCNC(=N)N)NC(=O)[C@H](CCC(N)=O)NC(=O)[C@H](Cc2c[nH]c3ccccc23)NC(=O)[C@H]([C@@H](C)O)NC(=O)[C@H](CC(N)=O)NC1=O` [compound 4] (Ac-[dK]NTWQRY[2Nal][Aib]DNN-NH2; lactam 1-10), for which, in data set [2] (pH 1.2 (100 mM HCl)), the “Conc. [mg/ml] 0 h” value was 1.4 mg/mL, the “Conc. [mg/ml] 24 h 37° C.” value turned out to be 1.0 mg/mL, the “Mass Balance [%] 24 h 37° C.” value is given as −2.3% and the “Relative Purity Loss [%] 24 h 37° C.” value turned out to be 22.9%. In addition, in data set [2] (setting [3]), the “Conc. [mg/ml] 0 h” value was found to be 1.4 mg/mL, the “Conc. [mg/ml] 24 h 37° C.” value came to 1.3 mg/mL, the “Mass Balance [%] 24 h 37° C.” value is reported as −4.6% and the “Relative Purity Loss [%] 24 h 37° C.” value is given as 0.7%. Also, in data set [2] (setting [4]), the “Conc. [mg/ml] 0 h” value stood at 1.4 mg/mL, the “Conc. [mg/ml] 24 h 37° C.” value was 1.3 mg/mL, the “Mass Balance [%] 24 h 37° C.” value is on record as −2.2% and the “Relative Purity Loss [%] 24 h 37° C.” value was 2.7%. Also, the IC50 in data set [1] is 339 nM.

On to `COc1ccc(C[C@@H]2NC(=O)[C@H](CCCNC(=N)N)NC(=O)[C@H](CCC(N)=O)NC(=O)[C@H](Cc3c[nH]c4ccccc34)NC(=O)[C@H]([C@@H](C)O)NC(=O)[C@H](CC(N)=O)NC(=O)[C@H](NC(C)=O)CCCCNC(=O)CC[C@@H](C(=O)N[C@@H](CC(N)=O)C(=O)N[C@@H](CC(N)=O)C(N)=O)NC(=O)C(C)(C)NC(=O)[C@H](Cc3ccc4ccccc4c3)NC2=O)cc1` [compound 5] (Ac-[dK]NTWQRY(Me)[2Nal][Aib]ENN-NH2; lactam 1-10), for which the pIC50 on human IL-23R was 8.71. The 50% inhibitory concentration (IC50) in data set [1] was 432 nM.

Consider `COc1ccc(C[C@@H]2NC(=O)[C@H](CCCNC(=N)N)NC(=O)[C@H](CCC(N)=O)NC(=O)[C@H](Cc3c[nH]c4ccccc34)NC(=O)[C@H]([C@@H](C)O)NC(=O)[C@H](CC(N)=O)NC(=O)[C@@H](NC(C)=O)CCCCNC(=O)C[C@@H](C(=O)N[C@@H](CC(N)=O)C(=O)N[C@@H](CC(N)=O)C(N)=O)NC(=O)C(C)(C)NC(=O)[C@H](Cc3cccc4ccccc34)NC2=O)cc1` [compound 9] (Ac-KNTWQRY(Me)[1Nal][Aib]DNN-NH2; lactam 1-10), for which, in data set [2] (pH 1.2 (100 mM HCl)), the “Conc. [mg/ml] 0 h” value came out at 1.5 mg/mL, the “Conc. [mg/ml] 24 h 37° C.” value amounted to 1.1 mg/mL, the “Mass Balance [%] 24 h 37° C.” value was −1.9% and the “Relative Purity Loss [%] 24 h 37° C.” value is given as 22.3%. Also, in data set [2] (setting [3]), the “Conc. [mg/ml] 0 h” value amounted to 1.2 mg/mL, the “Conc. [mg/ml] 24 h 37° C.” value was 1.2 mg/mL, the “Mass Balance [%] 24 h 37° C.” value was −1.8% and the “Relative Purity Loss [%] 24 h 37° C.” value was found to be 1.2%. For the same compound, in data set [2] (setting [4]), the “Conc. [mg/ml] 0 h” value was 1.5 mg/mL, the “Conc. [mg/ml] 24 h 37° C.” value was 1.4 mg/mL, the “Mass Balance [%] 24 h 37° C.” value was −3.2% and the “Relative Purity Loss [%] 24 h 37° C.” value is 2.6%. Also, the IC50 in data set [1] was found to be 1610 nM.

As to `COc1ccc(C[C@@H]2NC(=O)[C@H](CCCNC(=N)N)NC(=O)[C@H](CCC(N)=O)NC(=O)[C@H](Cc3cn(C)c4ccccc34)NC(=O)[C@H]([C@@H](C)O)NC(=O)[C@H](CC(N)=O)NC(=O)[C@H](NC(C)=O)CCCCNC(=O)C[C@@H](C(=O)N[C@@H](CC(N)=O)C(=O)N[C@@H](CC(N)=O)C(N)=O)NC(=O)[C@H](CCCCNC(C)=O)NC(=O)[C@H](Cc3ccc4ccccc4c3)NC2=O)cc1` [compound 10] (Ac-[dK]NT[Trp(1-Me)]QRY(Me)[2Nal]K(Ac)DNN-NH2; lactam 1-10), the pIC50 at human IL-23R was 8.44. Also, the half-maximal inhibitory concentration (IC50) in data set [1] was 1440 nM.

Turning to `COc1ccc(C[C@@H]2NC(=O)[C@H](CCCNC(=N)N)NC(=O)[C@H](CCC(N)=O)NC(=O)[C@H](Cc3c[nH]c4ccccc34)NC(=O)[C@H]([C@@H](C)O)NC(=O)[C@H](CC(N)=O)NC(=O)[C@H](NC(C)=O)CC(=O)NCCCC[C@@H](C(=O)N[C@@H](CC(N)=O)C(=O)N[C@@H](CC(N)=O)C(N)=O)NC(=O)C(C)(C)NC(=O)[C@H](Cc3ccc4ccccc4c3)NC2=O)cc1` [compound 12] (Ac-[dD]NTWQRY(Me)[2Nal][Aib]KNN-NH2; lactam 1-10), the pIC50 on human IL-23R is 7.83. For the same compound, the IC50 in data set [1] was found to be 6590 nM.

As for `COc1ccc(C[C@@H]2NC(=O)[C@H](CCCNC(=N)N)NC(=O)[C@H](CCC(N)=O)NC(=O)[C@H](Cc3c[nH]c4ccccc34)NC(=O)[C@H]([C@@H](C)O)NC(=O)[C@H](CC(N)=O)NC(=O)[C@H](NC(C)=O)CCCCNC(=O)C[C@@H](C(=O)N[C@@H](CC(N)=O)C(=O)N[C@@H](CC(N)=O)C(N)=O)NC(=O)C(C)(C)NC(=O)[C@H](Cc3ccc4ccccc4c3)NC2=O)cc1` [compound 15] (Ac-[dK]NTWQRY(Me)[2Nal][Aib]DNN-NH2; lactam 1-10), on human IL-23R, the negative-log IC50 (pIC50) is 8.98. Moreover, the half-maximal inhibitory concentration (IC50) in data set [1] amounted to 426 nM.

Regarding `COc1ccc(C[C@@H]2NC(=O)[C@H](C(C)C)NC(=O)[C@H](CCC(N)=O)NC(=O)[C@H](Cc3c[nH]c4ccccc34)NC(=O)[C@H]([C@@H](C)O)NC(=O)[C@H](CC(N)=O)NC(=O)[C@H](NC(C)=O)CCCCNC(=O)C[C@@H](C(=O)N[C@@H](CC(N)=O)C(=O)N[C@@H](CC(N)=O)C(N)=O)NC(=O)C(C)(C)NC(=O)[C@H](Cc3cccc4ccccc34)NC2=O)cc1` [compound 20] (Ac-[dK]NTWQVY(Me)[1Nal][Aib]DNN-NH2; lactam 1-10), the negative logarithm of the IC50 (pIC50) at human IL-23R was 7.80. The IC50 in data set [1] turned out to be 10000 nM.
